The values that follow come from patent US6294535A, “Uracil derivatives and antitumor effect potentiator and antitumor agent containing the same” (Taiho Pharmaceutical Co., Ltd., priority 1995, dated 2001).

One series deals with thymidine phosphorylase. The conditions noted are these: reported to date; cited from earlier work.
In series [1] the target is T1, thymidine phosphorylase obtained from human placenta (Homo sapiens, UniProt P19971).
T1 construct: thymidine phosphorylase obtained from human placenta in a highly purified form; from tissue; host or cells: human placenta
T1 sequence (P19971 11-482): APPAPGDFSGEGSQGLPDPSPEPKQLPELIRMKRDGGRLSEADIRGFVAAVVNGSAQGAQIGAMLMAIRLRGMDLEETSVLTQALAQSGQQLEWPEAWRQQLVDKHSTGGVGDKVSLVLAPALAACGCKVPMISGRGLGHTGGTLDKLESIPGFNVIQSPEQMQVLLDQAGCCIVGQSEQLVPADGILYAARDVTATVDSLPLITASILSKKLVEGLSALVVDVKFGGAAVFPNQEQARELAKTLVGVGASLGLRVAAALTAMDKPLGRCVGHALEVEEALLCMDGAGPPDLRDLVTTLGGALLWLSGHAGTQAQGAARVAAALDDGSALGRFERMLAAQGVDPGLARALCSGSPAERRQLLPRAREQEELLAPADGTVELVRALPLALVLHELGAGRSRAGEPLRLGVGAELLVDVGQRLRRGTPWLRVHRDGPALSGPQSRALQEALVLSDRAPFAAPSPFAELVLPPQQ
Description: Test 1: thymidine phosphorylase inhibiting effects (formation of [6-3H]thymine from [6-3H]thymidine). In kind it is biochemical. The conditions noted are these: 37° C., 5 minutes, pH 7.4, 3 mM thymidine solution.

Series [2] deals with Nude-mouse-transplanted human tumor. Kind of series: Test 2: antitumor effects, nude-mouse-transplanted human tumor. The conditions noted are these: oral, once a day for 14 days. In kind it is in vivo.
Series [3] has the same test system.
Another series relates to herpetic keratitis. The following applies: used as an eye drop for herpetic keratitis; cited from earlier work.
The conditions of series [4]: antitumor; cited from earlier work.
Series [5] deals with Nude-mouse-transplanted human tumor. Kind of series: Test 4: antitumor effects, therapeutic index of F3 dThd with Compound 2. The conditions noted are these: oral, once a day for 14 days. In kind it is in vivo. The source says:
Test 4 (Antitumor Effects)

The next series concerns S-180 cells. The conditions noted are these: oral, once a day for 7 days.

Structures are written as SMILES. Read-outs that look alike come from different tables or passages of the source.

With `Cc1cn(COCCO)c(=O)[nH]c1=O` [Acyclothymidine], the “inhibitory activities against thymidine phosphorylase” value in the series with thymidine phosphorylase is listed as “not sufficient”. This compound had an IC50 in series [1] greater than 1000 µM.
With `O=c1[nH]c(=O)n([C@H]2C[C@H](O)[C@@H](CO)O2)cc1C(F)(F)F` [F3 dThd, 5-Trifluoromethyl-2'-deoxyuridine], the “Tumor size reduction rate” value turned out to be 27% in series [2] (50 mg/kg in terms of F3 dThd) and 50% in series [2] (100 mg/kg in terms of F3 dThd). The “Therapeutic index BWC-10 /ED50” value in series [3] (mouse, in vivo, po) is recorded as 2.7; in series [5] it was 1.7. Moreover, the BWC-10 in series [3] (mouse, in vivo, po, 20160 min) came out at 73.8 mg/kg; in series [5] (body weight change, in terms of F3 dThd), 103 mg/kg. Also, the ED50 stood at 26.9 mg/kg in series [3] (oral, once a day for 14 days, 12.5-100 mg/kg in terms of F3 dThd) and 60.0 mg/kg in series [5] (12.5-100 mg/kg in terms of F3 dThd). Also, the antiviral activities result in the series on herpetic keratitis is given as “has antiviral activities”. In addition, the in vitro activities result in series [4] is “strong in vitro activities”.
`N#Cc1ccc(O)nc1O` [3-Cyano-2,6-dihydroxypyridine]: the “inhibitory activities against thymidine phosphorylase” value in the series on thymidine phosphorylase was “not sufficient”.
Take `O=c1[nH]c(=O)n([C@H]2C[C@H](O)[C@@H](CO)O2)cc1F` [FdUrd, 5-Fluoro-2'-deoxyuridine]: the “Tumor size reduction rate” value in the series on S-180 cells (5 mg/kg in terms of FdUrd) was 10.5%; with S-180 cells (10 mg/kg in terms of FdUrd) it was 24.4%. Besides, the in vitro activities result in series [4] is reported as “strong in vitro activities”.
